Two compounds from patent publication US10231954B2, “Neurodegenerative therapies” (LYTIX BIOPHARMA AS, priority 2014, dated 2019) can be followed below.

One experiment has as its target MKK2 (Homo sapiens, UniProt P36507). The experiment in a line: Kinase profiling MKK2. It counts as biochemical. The source says: (§1) Any value less that 25 is considered to be highly significant inhibition.
The next experiment deals with T1, MKK6 (Homo sapiens, UniProt P52564).
T1 sequence (P52564 1-334): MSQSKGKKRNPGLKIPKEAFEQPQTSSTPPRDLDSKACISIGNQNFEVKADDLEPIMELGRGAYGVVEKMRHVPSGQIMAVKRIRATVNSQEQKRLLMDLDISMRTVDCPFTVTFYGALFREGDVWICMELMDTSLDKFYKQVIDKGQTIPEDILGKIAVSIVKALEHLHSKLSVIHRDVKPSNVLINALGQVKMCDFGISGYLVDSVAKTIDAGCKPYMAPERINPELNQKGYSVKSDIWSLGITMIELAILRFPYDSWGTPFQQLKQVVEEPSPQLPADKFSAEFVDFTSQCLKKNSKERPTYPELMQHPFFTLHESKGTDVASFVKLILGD
The experiment in a line: Kinase profiling MKK6. It counts as biochemical.
Excerpt: as §1

The next experiment addresses JNK1 (Homo sapiens, UniProt P45983). Nature of the experiment: Kinase profiling JNK1. The experiment is classed as biochemical.
Excerpt: as §1

In the next experiment the target is p38b MAPK (Homo sapiens, UniProt Q15759). Nature of the experiment: Kinase profiling p38b MAPK. It counts as biochemical.
Excerpt: as §1

The next experiment concerns the target RSK1 (Homo sapiens, UniProt Q15418). The experiment in a line: Kinase profiling RSK1. The experiment is classed as biochemical.
Excerpt: as §1

A further experiment addresses T2, PDK1 (Homo sapiens, UniProt O15530).
T2 sequence (O15530 1-556): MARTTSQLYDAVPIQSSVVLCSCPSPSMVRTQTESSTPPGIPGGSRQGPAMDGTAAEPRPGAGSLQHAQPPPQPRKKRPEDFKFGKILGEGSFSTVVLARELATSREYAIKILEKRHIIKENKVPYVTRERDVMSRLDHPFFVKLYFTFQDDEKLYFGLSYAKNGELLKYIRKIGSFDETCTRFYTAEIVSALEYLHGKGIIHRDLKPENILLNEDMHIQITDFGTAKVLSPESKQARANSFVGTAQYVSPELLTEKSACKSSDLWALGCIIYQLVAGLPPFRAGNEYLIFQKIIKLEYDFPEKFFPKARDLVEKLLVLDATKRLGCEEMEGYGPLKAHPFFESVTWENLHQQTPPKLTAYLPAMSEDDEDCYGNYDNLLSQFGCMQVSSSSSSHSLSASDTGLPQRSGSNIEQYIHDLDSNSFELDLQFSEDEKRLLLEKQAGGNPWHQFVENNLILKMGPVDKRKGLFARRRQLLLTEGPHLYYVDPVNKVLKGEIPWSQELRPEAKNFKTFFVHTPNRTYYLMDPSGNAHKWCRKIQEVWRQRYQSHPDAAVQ
The experiment in a line: Kinase profiling PDK1. The experiment is classed as biochemical.
Excerpt: as §1

The target in another experiment is PKBa (Homo sapiens, UniProt P31749). Nature of the experiment: Kinase profiling PKBa. The experiment is classed as biochemical.
Excerpt: as §1

A further experiment addresses S6K1 (Homo sapiens, UniProt P23443). The experiment in a line: Kinase profiling S6K1. It counts as biochemical.
Excerpt: as §1

The target of the next experiment is PKA (Homo sapiens, UniProt P17612). The experiment in a line: Kinase profiling PKA. The experiment is classed as biochemical.
Excerpt: as §1

For a further experiment, the target named is ROCK 2 (Homo sapiens, UniProt O75116). The experiment in a line: Kinase profiling ROCK 2. The experiment is classed as biochemical.
Excerpt: as §1

The target in a further experiment is PRK2 (Homo sapiens, UniProt Q16513). Nature of the experiment: Kinase profiling PRK2. It counts as biochemical.
Excerpt: as §1

In another experiment the target is PKCa (Homo sapiens, UniProt P17252). The experiment in a line: Kinase profiling PKCa. The experiment is classed as biochemical.
Excerpt: as §1

A further experiment concerns the target CAMKKb (Homo sapiens, UniProt Q96RR4). The experiment in a line: Kinase profiling CAMKKb. It counts as biochemical.
Excerpt: as §1

Another experiment has as its target PLK1 (Homo sapiens, UniProt P53350). Nature of the experiment: Kinase profiling PLK1. It counts as biochemical.
Excerpt: as §1

For another experiment, the system named is AMPK (hum). Nature of the experiment: Kinase profiling AMPK (hum). It counts as biochemical, human.
Excerpt: as §1

A further experiment has as its target MELK (Homo sapiens, UniProt Q14680). The experiment in a line: Kinase profiling MELK. The experiment is classed as biochemical.
Excerpt: as §1

A further experiment concerns the target PIM1 (Homo sapiens, UniProt P11309). The experiment in a line: Kinase profiling PIM1. It counts as biochemical.
Excerpt: as §1

A further experiment concerns the target RIPK2 (Homo sapiens, UniProt O43353). The experiment in a line: Kinase profiling RIPK2. It counts as biochemical.
Excerpt: as §1

The target in the next experiment is BTK (Homo sapiens, UniProt Q06187). The experiment in a line: Kinase profiling BTK. It counts as biochemical.
Excerpt: as §1

The target of the next experiment is EPH-A2 (Homo sapiens, UniProt P29317). Nature of the experiment: Kinase profiling EPH-A2. It counts as biochemical.
Excerpt: as §1

Another experiment concerns the target HER4 (Homo sapiens, UniProt Q15303). Nature of the experiment: Kinase profiling HER4. The experiment is classed as biochemical.
Excerpt: as §1

In another experiment the target is IGF-1R (Homo sapiens, UniProt P08069). The experiment in a line: Kinase profiling IGF-1R. The experiment is classed as biochemical.
Excerpt: as §1

[1] abbreviates: 100 micromolar inhibitor concentration, 100 is no change.

IGF-1R, sequence (P08069 31-1367, species assumed): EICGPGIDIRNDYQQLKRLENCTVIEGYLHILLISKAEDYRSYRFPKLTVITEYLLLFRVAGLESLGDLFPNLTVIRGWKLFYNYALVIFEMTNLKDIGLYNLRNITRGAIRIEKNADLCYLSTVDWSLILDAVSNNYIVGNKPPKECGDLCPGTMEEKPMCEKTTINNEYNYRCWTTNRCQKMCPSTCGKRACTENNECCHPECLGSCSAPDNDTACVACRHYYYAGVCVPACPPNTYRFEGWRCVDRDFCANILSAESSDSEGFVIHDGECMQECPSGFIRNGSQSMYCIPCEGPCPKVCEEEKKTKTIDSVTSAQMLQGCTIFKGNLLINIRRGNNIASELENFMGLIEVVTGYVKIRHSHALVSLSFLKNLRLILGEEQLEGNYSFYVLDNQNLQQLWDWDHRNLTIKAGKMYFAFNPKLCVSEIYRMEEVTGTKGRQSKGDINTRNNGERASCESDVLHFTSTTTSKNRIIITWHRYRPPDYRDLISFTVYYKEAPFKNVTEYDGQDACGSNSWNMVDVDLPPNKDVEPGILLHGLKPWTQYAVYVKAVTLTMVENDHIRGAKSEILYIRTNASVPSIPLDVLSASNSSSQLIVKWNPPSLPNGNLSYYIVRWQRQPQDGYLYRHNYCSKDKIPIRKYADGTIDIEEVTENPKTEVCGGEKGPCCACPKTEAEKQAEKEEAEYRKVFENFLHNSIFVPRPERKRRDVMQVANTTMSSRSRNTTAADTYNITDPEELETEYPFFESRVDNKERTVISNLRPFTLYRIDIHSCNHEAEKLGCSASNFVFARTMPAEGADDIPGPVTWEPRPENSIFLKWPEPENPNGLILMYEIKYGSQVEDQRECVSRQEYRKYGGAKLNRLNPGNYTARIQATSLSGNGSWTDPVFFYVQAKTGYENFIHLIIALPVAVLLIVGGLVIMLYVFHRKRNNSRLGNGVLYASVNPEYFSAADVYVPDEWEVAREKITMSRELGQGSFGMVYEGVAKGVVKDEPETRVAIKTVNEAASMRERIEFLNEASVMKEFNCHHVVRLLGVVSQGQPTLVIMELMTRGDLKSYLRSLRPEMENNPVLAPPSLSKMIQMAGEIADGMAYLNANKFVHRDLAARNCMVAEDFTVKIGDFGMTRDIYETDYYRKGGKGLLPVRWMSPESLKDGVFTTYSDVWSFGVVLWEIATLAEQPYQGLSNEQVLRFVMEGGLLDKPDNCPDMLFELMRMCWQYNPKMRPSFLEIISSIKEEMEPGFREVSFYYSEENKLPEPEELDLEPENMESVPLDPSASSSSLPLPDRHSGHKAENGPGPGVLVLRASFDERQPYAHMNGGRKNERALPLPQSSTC
JNK1, sequence (P45983 whole entry, species assumed): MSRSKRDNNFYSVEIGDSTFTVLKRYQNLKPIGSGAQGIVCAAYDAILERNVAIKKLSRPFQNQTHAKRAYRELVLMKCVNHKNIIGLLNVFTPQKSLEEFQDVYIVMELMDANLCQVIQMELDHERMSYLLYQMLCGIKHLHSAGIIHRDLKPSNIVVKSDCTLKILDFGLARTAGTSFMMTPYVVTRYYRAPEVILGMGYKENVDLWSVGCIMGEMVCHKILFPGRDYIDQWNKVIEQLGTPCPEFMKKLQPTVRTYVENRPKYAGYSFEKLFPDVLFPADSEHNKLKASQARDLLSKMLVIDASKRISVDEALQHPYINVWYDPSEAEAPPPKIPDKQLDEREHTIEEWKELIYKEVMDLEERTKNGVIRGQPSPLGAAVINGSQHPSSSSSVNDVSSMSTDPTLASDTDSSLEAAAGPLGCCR
PIM1, sequence (P11309 whole entry, species assumed): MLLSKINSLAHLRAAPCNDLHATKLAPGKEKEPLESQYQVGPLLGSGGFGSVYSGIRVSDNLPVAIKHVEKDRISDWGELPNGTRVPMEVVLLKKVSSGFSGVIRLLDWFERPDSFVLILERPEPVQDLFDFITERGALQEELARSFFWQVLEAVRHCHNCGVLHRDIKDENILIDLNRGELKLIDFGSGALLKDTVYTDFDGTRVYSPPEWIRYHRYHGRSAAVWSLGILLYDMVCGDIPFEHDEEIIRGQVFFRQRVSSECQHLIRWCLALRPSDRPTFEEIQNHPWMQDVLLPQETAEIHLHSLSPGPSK
MELK, sequence (Q14680 whole entry, species assumed): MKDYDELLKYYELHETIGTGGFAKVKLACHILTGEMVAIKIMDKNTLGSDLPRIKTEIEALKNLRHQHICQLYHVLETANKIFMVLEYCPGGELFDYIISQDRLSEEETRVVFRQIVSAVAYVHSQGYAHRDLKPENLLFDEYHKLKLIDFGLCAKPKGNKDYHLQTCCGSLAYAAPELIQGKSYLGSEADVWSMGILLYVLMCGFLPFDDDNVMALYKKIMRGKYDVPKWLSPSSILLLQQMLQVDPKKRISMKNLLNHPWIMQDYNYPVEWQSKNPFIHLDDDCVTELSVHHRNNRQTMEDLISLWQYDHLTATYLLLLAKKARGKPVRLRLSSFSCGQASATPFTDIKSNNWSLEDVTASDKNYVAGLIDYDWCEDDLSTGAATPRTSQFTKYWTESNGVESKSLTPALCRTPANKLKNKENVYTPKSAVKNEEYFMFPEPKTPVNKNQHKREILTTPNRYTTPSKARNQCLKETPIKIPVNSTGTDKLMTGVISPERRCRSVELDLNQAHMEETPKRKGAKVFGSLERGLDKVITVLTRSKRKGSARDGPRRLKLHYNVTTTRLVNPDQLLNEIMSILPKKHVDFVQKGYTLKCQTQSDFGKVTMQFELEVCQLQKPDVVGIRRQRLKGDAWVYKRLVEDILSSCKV
BTK, sequence (Q06187 whole entry, species assumed): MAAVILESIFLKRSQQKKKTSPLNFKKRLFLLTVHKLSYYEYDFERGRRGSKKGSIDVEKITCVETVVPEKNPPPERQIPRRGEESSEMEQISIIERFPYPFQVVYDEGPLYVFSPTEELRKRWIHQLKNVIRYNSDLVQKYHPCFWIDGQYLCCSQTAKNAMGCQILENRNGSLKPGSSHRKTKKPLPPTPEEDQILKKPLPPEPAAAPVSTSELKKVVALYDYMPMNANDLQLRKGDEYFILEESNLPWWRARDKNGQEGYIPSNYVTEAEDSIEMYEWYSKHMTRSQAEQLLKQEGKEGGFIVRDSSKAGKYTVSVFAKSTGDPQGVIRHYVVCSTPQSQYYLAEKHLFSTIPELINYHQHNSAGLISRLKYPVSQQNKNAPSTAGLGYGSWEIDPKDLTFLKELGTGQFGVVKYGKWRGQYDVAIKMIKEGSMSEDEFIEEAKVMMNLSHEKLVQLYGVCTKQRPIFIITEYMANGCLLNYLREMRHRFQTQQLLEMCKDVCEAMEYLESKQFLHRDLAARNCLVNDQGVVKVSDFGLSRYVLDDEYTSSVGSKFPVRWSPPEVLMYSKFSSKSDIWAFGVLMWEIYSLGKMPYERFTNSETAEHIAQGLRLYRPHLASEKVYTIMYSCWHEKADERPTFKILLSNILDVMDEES
EPH-A2, sequence (P29317 24-976, species assumed): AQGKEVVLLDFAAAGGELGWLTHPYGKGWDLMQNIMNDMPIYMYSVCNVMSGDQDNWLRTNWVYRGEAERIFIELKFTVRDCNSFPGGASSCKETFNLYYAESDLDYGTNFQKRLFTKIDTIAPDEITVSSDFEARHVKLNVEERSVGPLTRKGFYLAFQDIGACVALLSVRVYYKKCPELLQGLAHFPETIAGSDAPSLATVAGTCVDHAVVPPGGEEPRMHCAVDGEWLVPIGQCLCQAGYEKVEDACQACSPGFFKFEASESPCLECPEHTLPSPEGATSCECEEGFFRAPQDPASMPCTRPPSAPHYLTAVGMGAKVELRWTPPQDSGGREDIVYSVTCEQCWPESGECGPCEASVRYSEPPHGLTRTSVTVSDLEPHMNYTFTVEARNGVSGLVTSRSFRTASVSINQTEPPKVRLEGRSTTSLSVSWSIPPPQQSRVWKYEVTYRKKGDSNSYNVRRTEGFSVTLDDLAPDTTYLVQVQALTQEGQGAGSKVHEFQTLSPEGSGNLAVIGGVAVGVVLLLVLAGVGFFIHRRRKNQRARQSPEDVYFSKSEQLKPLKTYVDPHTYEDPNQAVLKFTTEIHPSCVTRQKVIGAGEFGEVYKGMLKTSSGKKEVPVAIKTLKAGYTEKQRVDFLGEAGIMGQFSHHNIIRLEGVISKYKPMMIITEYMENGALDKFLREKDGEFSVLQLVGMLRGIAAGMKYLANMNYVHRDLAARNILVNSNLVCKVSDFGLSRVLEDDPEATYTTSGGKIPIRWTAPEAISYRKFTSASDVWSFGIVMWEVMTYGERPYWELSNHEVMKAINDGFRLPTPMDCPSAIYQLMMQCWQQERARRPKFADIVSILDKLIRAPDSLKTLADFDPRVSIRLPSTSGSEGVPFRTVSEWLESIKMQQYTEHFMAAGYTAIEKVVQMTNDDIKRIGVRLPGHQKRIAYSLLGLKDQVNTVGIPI

`CC(=O)Nc1cccc(NC(=O)c2nc3ccc(O)cc3s2)c1` [Compound 03-07, N-(3-acetamidophenyl)-6-hydroxybenzo[d]thiazole-2-carboxamide]: the remaining activity at 100 µM on MKK2 (100 micromolar inhibitor, 100 = no change, read-out: residual kinase activity, MKK2) was 88%; at MKK6 (100 micromolar inhibitor, 100 = no change, read-out: residual kinase activity, MKK6) it was 114%; on JNK1 (100 micromolar inhibitor, 100 = no change, read-out: residual kinase activity, JNK1), 103%; at p38b MAPK (100 micromolar inhibitor, 100 = no change, read-out: residual kinase activity, p38b MAPK) it was 96%; at RSK1 (100 micromolar inhibitor, 100 = no change, read-out: residual kinase activity, RSK1), 48%; at PDK1 (100 micromolar inhibitor, 100 = no change, read-out: residual kinase activity, PDK1) it was 72%. Moreover, the remaining activity at 100 µM on PKBa (100 micromolar inhibitor, 100 = no change, read-out: residual kinase activity, PKBa) is 103%; at S6K1 (100 micromolar inhibitor, 100 = no change, read-out: residual kinase activity, S6K1) it was 26%; on PKA (100 micromolar inhibitor, 100 = no change, read-out: residual kinase activity, PKA) it was 91%; at ROCK 2 (100 micromolar inhibitor, 100 = no change, read-out: residual kinase activity, ROCK 2) it was 27%; at PRK2 (100 micromolar inhibitor, 100 = no change, read-out: residual kinase activity, PRK2) it was 74%; at PKCa (100 micromolar inhibitor, 100 = no change, read-out: residual kinase activity, PKCa), 81%. The remaining activity at 100 µM on CAMKKb (100 micromolar inhibitor, 100 = no change, read-out: residual kinase activity, CAMKKb) was found to be 30%; at PLK1 (100 micromolar inhibitor, 100 = no change, read-out: residual kinase activity, PLK1), 93%; at MELK (100 micromolar inhibitor, 100 = no change, read-out: residual kinase activity, MELK) it was 12%; on PIM1 (100 micromolar inhibitor, 100 = no change, read-out: residual kinase activity, PIM1), 25%; at RIPK2 (100 micromolar inhibitor, 100 = no change, read-out: residual kinase activity, RIPK2), 18%; at BTK (100 micromolar inhibitor, 100 = no change, read-out: residual kinase activity, BTK), 32%. Moreover, the remaining activity at 100 µM amounted to 88% on EPH-A2 (100 micromolar inhibitor, 100 = no change, read-out: residual kinase activity, EPH-A2); 50% at HER4 (100 micromolar inhibitor, 100 = no change, read-out: residual kinase activity, HER4); 96% at IGF-1R (100 micromolar inhibitor, 100 = no change, read-out: residual kinase activity, IGF-1R). Also, the “residual kinase activity, AMPK (hum)” value in the experiment with AMPK (hum) (100 micromolar inhibitor, 100 = no change) amounted to 34.
For the compound `O=C(Nc1nc2cc(O)ccc2s1)c1ccncc1` [Compound 03-11], at MKK2 (setting [1]), the “residual kinase activity, MKK2” value is 98. In addition, the “residual kinase activity, MKK6” value at MKK6 (setting [1]) was 101. Besides, the “residual kinase activity, JNK1” value on JNK1 (setting [1]) is 95. On p38b MAPK (setting [1]), the “residual kinase activity, p38b MAPK” value was found to be 97. The “residual kinase activity, RSK1” value on RSK1 (setting [1]) was determined as 83. Besides, the “residual kinase activity, PDK1” value on PDK1 (setting [1]) stood at 100. In addition, the “residual kinase activity, PKBa” value on PKBa (setting [1]) was determined as 88. Further, the “residual kinase activity, S6K1” value on S6K1 (setting [1]) was determined as 83. Besides, the “residual kinase activity, PKA” value on PKA (setting [1]) stood at 110. On ROCK 2 (setting [1]), the “residual kinase activity, ROCK 2” value came to 80. For the same compound, at PRK2 (setting [1]), the “residual kinase activity, PRK2” value amounted to 77. Moreover, the “residual kinase activity, PKCa” value on PKCa (setting [1]) was 91. Moreover, the “residual kinase activity, CAMKKb” value on CAMKKb (setting [1]) is 88. The “residual kinase activity, PLK1” value at PLK1 (setting [1]) is 76. The “residual kinase activity, AMPK (hum)” value in the experiment on AMPK (hum) (setting [1]) amounted to 98. Further, the “residual kinase activity, MELK” value on MELK (setting [1]) is given as 48. Also, the “residual kinase activity, PIM1” value at PIM1 (setting [1]) is recorded as 74. Besides, the “residual kinase activity, RIPK2” value at RIPK2 (setting [1]) is on record as 60. For the same compound, on BTK (setting [1]), the “residual kinase activity, BTK” value is 107. The “residual kinase activity, EPH-A2” value at EPH-A2 (setting [1]) was 84. Also, the “residual kinase activity, HER4” value at HER4 (setting [1]) turned out to be 96. For the same compound, at IGF-1R (setting [1]), the “residual kinase activity, IGF-1R” value is 107.
